Assays:
[1] = system: human iTCR; assay: In vitro activation of human iTCR through Jurkat reporter cell line (JiNKT, GFP under NFkB promoter) with drug-loaded BWSTIM cells; type: cell-based; conditions: for EC50 of the dose response based on percentage GFP+ cells, compared to α-GalCer: BWSTIM loaded 4 hours, co-culture with JiNKT 18 to 24 hours, FIG. 1
Method: In order to determine the human iTCR activation potential induced by the compounds described herein, a jurkat cell line (JiNKT) was transfected with the human iTCR, and GFP under the NFkB promoter (cell line licensed from the Medical University of Vienna). A BWS147 cell line (BWSTIM) was also transfected with CD80 and CD1d to act as the antigen-presenting cell.
(§1) DCD molecules or α-GalCer were both dissolved in DMSO at a 5 mg/mL stock solution. BWSTIM cells were loaded with DCD molecules or α-GalCer at varying concentrations for 4 hours at 37° C. at a concentration of 20 k cells/well in 200 μL of media in a u-bottom 96 well dish. BWSTIM cells were washed 2× with media, then incubated with JiNKT cells at a concentration of 80 k cells/well in a u-bottom 96 well dish. Cells were co-cultured for 18 to 24 hours. The percentage of cells expressing high levels of GFP was measured through flow cytometry (after gating out the mCD45+ BWSTIM cells).
A jurkat cell line (JiNKT) was transfected with the human iTCR, and GFP under the NFkB promoter. A BWS147 cell line (BWSTIM) was also transfected with CD80 and CD1d to act as the antigen-presenting cell. A mouse iNKT hybridoma cell line (DN3.2) was also used as the iNKT. […]
as §1, with “GVK” for “DCD”, “compounds” for “DCD molecules or α-GalCer at varying concentrations”, “for” for “for 18 to”, “cytometry. 1 μg/mL of molecule GVK1a, GVK1b, GVK1c, or GVK1f was incubated with BWSTIM+JiNKT, and compared to α-GalCer.” for “cytometry (after gating out the mCD45+ BWSTIM cells).”

[2] = system: serum IFNγ; assay: In vivo serum IFNγ (ELISA) in C57BL/6J mice; conditions: 2 μg I.P.; twenty hours post-injection; FIG. 4A
Method: In order to determine the expansion induced by the molecules described herein, molecules were injected into C57BL/6J mice. Serum IFNγ levels and the expansion of iNKT cells within splenocytes was measured 4 days post-IP injection.
Eight weeks old C57BL/6J mice were injected (I.P.) with 2 μg of α-GalCer or DCD molecules. Molecules were either dissolved in DMSO at a 5 mg/mL stock solution, or formulated into liposomes through thin-film rehydration, then extrusion through 200 nm filters. Liposome-based formulations were constructed using soy phosphatidylcholine, cholesterol, and DCD or α-GalCer in a 2:1:0.15 ratio. Twenty hours post-injection, blood was collected from the tail to measure the level of serum IFNγ using an ELISA kit from Biolegend. Four days post-injection, the mice were sacrificed and the spleenocytes were isolated. The percentage of iNKT cells within the spleens was measured using flow cytometry, selecting for live cells and mouse CD1d-α-GalCer tetramer+ cells.

[3] = system: primary human iNKT cells; assay: Cytokine secretion of primary human iNKT cells co-cultured with drug-loaded BWSTIM cells; type: cell-based; conditions: BWSTIM loaded with 10 μg/mL
Method: In order to determine the activation profile induced by the compounds described herein, primary human iNKT cells were co-cultured with drug-loaded BWSTIM cells.
Day 0: PBMCs were isolated from human blood using the STEMCELL TECHNOLOGIES™ SepMate™ PBMC isolation system. iNKT cells were then selected using the Miltenyi NKT magnetic cell separation kit.
Day 2: DCD molecules or α-GalCer were both dissolved in DMSO at a 5 mg/mL stock solution. BWSTIM cells were fixed with mitomycin C, then loaded with 10 μg/mL of DCD molecules or α-GalCer for 4 hours at 37° C. at a concentration of 20 k cells/well in 200 μL of media in a u-bottom 96 well dish. Cells were co-cultured with 80 k 6B11+ selected primary human iNKT cells.
D4: Media was collected. Cytokines were measured using the Satorious 4Plex kit on the iQue3 cytometer.
GVK molecules or α-GalCer were both dissolved in DMSO at a 5 mg/mL stock solution. BWSTIM cells were loaded with compounds for 4 hours at 37° C. at a concentration of 20 k cells/well in 200 μL of media in a u-bottom 96 well dish. Cells were co-cultured with 100 k 6B11+ selected primary human iNKT cells. Media was collected 2 days later. Cytokines were measured using the Satorious 4Plex kit on the iQue3 cytometer.

| SMILES | EC50 of the dose response based on percentage GFP+ cells, compared to α-GalCer [1] | also measured |
| --- | --- | --- |
| CCCCCCCCCCCCCC[C@@H](O)[C@@H](O)[C@H](COC1OC(CO)C(O)C(O)C1O)NC(=O)CCCCCCCOCCC1CCOCC1 (some centres unmarked) [DCD-140] | lower EC50s compared to α-GalCer |  |
| CCCCCCCCCCCCCC[C@@H](O)[C@@H](O)[C@H](COC1OC(CO)C(O)C(O)C1O)NC(=O)CCCCCCCCCCC1CCS(=O)(=O)CC1 (some centres unmarked) [DCD-127] | lower EC50s compared to α-GalCer | % GFP+ ([1]; ranking among tested compounds, at the lowest concentration): highest % GFP+ at the lowest concentration |
| CCCCCCCCCCCCCC[C@@H](O)[C@@H](O)[C@H](COC1OC(CO)C(O)C(O)C1O)NC(=O)CCCCCOCCCCC1CCOCC1 (some centres unmarked) [DCD-144] | lower EC50s compared to α-GalCer |  |
| CCCCCCCCCCCCCC[C@@H](O)[C@@H](O)[C@H](COC1OC(CO)C(O)C(O)C1O)NC(=O)CCCCCCOCCCC1CCOCC1 (some centres unmarked) [DCD-143] | lower EC50s compared to α-GalCer |  |
| CCCCCCCCCCCCCCCCC[Si](C)(C)CCCCCCCC(=O)N[C@@H](COC1OC(CO)C(O)C(O)C1O)[C@H](O)[C@H](O)CCCCCCCCCCCCCC (some centres unmarked) [DCD-157] | lower EC50s compared to α-GalCer | average serum IFNγ compared to α-GalCer [2]: higher than the average serum IFNγ of C57BL/6J mice treated with α-GalCer |
| CCCCCCCCCCCCCC[C@@H](O)[C@@H](O)[C@H](COC1OC(CO)C(O)C(O)C1O)NC(=O)CCCCCCCCCCC1COC1 (some centres unmarked) [DCD-118] | lower EC50s compared to α-GalCer |  |
| CCCCCCCCCCCCCC[C@@H](O)[C@@H](O)[C@H](COC1OC(CO)C(O)C(O)C1O)NC(=O)CCCCCCCCCCCCCCCCCCCCCCCC12CC(F)(C1)C2 (some centres unmarked) [DCD-155] | lower EC50s compared to α-GalCer | average serum IFNγ compared to α-GalCer [2]: higher than the average serum IFNγ of C57BL/6J mice treated with α-GalCer |
| CCCCCCCCCCCCCC[C@@H](O)[C@@H](O)[C@H](COC1OC(CO)C(O)C(O)C1O)NC(=O)CCCCCCCCCCC1CCOC1 (some centres unmarked) [DCD-121] | lower EC50s compared to α-GalCer |  |
| CCCCCCCCCCCCCC[C@@H](O)[C@@H](O)[C@H](COC1OC(CO)C(O)C(O)C1O)n1cc(CCCCCCN(CCCCCCC)CCCCCCC)nn1 (some centres unmarked) [DCD-104] | lower EC50s compared to α-GalCer | IFNγ secretion compared to the no-compound control ([3]; FIG. 3A): significantly higher levels; IL6 secretion compared to the no-compound control ([3]; FIG. 3B): significantly higher levels; TNFα secretion compared to the no-compound control ([3]; FIG. 3C): significantly higher levels |
| CCCCCCCCCCCCCC[C@@H](O)[C@@H](O)[C@H](COC1OC(CO)C(O)C(O)C1O)NC(=O)CCCCCCCCCCCCCCCCCCCCCC1COC1 (some centres unmarked) [DCD-150] | lower EC50s compared to α-GalCer |  |
| CCCCCCCCCCCCCC[C@@H](O)[C@@H](O)[C@H](COC1OC(CO)C(O)C(O)C1O)NC(=O)CCCCCCCCCCS(=O)(=O)C(C)C (some centres unmarked) [DCD-137] | lower EC50s compared to α-GalCer |  |
| CCCCCCCCCCCCCC[C@@H](O)[C@@H](O)[C@H](COC1OC(CO)C(O)C(O)C1O)NC(=O)CCCCCCCCCCCC12C3C4C5C3C1C5C42 (some centres unmarked) [DCD-103] | lower EC50s compared to α-GalCer |  |
| CCCCCCCCCCCCCCCCCC[Si](C)(C)CCCCCCC(=O)N[C@@H](COC1OC(CO)C(O)C(O)C1O)[C@H](O)[C@H](O)CCCCCCCCCCCCCC (some centres unmarked) [DCD-152] |  | average serum IFNγ compared to α-GalCer [2]: higher than the average serum IFNγ of C57BL/6J mice treated with α-GalCer |
| CCCCCCCCCCCCCC[C@@H](O)[C@@H](O)[C@H](COC1OC(CO)C(O)C(O)C1O)NC(=O)CCCCCCCCCOC1CCS(=O)(=O)CC1 (some centres unmarked) [DCD-138] | lower EC50s compared to α-GalCer |  |

From patent publication US12655171B2, “Compounds for activating invariant natural killer T-cells and methods of use in eliminating inflammatory senescent cells” (Deciduous Therapeutics, Inc., priority 2021, dated 2026)
